Test results taken from patent US20260184687A1, “DIHYDROINDENE DERIVATIVES AS MALT1 INHIBITORS” (C4X Discovery Limited, priority 2022, published 2026).
Counter-ions that a name gives are not always drawn.

Tests used:
[1] = system: IL-2 release from stimulated Jurkat cells; test: Human IL-2 Release Phenotypic Assay (Assay 3); assay type: cell-based; conditions: Jurkat cells (clone E6-1), 200 ng/mL PMA + 300 ng/mL ionomycin, IL-2 by ELISA
Summary of the method: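 Jurkat E6-1 cells in RPMI1640/10% FBS were seeded at 50 000 cells/well and incubated overnight at 37° C. Half-log compound dilutions (0.5% final DMSO) were added for 30 min, then cells were stimulated with 200 ng/mL PMA + 300 ng/mL ionomycin for 48 h. IC50 came from a 4-parameter non-linear regression fit.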

[2] = target: MALT1-GS-Ub (6-His-hMALT-1 residues 339-715 fused to ubiquitin) (Homo sapiens, UniProt Q9UDY8); test: biochemical;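 further: in vitro MALT1 protease assay: enzyme preincubated with compound 30 min at room temperature, then cleavage of fluorogenic Ac-LVSR-AMC substrate (100 µM) followed by fluorescence every 15 min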
FL hMALT1 enzyme = target: T1, FL hMALT1 enzyme (Homo sapiens, UniProt Q9UDY8); test: biochemical;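 further: Cell-free protease assay: enzyme preincubated with compound 30 min at room temperature, then cleavage of fluorogenic Ac-LVSR-AMC substrate (100 µM) tracked by fluorescence (ex 360/em 460 nm)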
T1 sequence (Q9UDY8 1-824): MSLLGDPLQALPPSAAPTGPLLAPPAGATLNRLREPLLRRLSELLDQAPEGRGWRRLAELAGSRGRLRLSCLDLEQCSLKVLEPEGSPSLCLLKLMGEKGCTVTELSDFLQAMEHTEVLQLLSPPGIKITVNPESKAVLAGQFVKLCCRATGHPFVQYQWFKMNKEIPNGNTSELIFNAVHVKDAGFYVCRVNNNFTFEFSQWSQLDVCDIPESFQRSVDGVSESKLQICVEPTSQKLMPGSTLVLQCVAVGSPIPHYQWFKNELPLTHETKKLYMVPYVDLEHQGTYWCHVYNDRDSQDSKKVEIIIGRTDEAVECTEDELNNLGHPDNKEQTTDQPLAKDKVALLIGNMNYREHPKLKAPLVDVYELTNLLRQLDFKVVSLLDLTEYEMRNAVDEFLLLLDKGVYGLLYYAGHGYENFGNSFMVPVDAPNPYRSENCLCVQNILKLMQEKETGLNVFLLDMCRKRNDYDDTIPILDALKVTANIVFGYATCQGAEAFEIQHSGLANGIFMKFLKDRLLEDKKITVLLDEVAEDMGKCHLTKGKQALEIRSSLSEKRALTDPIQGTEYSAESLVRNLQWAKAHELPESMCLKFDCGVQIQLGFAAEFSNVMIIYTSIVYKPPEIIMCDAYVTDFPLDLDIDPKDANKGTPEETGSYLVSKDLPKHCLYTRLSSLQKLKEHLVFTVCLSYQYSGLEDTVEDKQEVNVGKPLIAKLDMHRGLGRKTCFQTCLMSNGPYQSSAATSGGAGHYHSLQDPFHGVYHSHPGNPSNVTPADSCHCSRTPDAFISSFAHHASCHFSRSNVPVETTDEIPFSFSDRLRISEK

Chain of MALT1-GS-Ub (6-His-hMALT-1 residues 339-715 fused to ubiquitin) (Q9UDY8 with tags, fused parts or gaps limits assumed): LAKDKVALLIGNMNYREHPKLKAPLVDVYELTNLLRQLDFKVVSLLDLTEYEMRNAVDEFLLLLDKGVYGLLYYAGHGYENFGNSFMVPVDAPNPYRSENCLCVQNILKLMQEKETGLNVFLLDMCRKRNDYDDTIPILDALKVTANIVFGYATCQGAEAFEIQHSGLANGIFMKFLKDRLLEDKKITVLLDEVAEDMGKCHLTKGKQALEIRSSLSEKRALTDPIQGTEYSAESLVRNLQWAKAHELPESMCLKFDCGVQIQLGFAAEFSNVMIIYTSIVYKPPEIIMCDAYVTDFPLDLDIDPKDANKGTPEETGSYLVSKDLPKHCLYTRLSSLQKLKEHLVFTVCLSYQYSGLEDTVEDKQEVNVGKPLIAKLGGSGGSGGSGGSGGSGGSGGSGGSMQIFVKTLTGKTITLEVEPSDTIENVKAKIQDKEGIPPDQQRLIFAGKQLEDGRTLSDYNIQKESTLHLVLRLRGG

SMILES	IC50 ([1]; 48 hours)	IC50 [2]	IC50 (FL hMALT1 enzyme)	IC50 ([1]; Homo sapiens, Jurkat, 48 h)
COCC(=O)N(C)[C@@H](c1ccc(NC2Cc3ccccc3C2(C)C)cc1)C(F)(F)F (single isomer, unassigned) [Example 29]	690 nM	160 nM	14 nM	–
CN(C(=O)OC1CNC1)[C@@H](c1ccc(NC2Cc3ccccc3C2(C)C)cc1)C(F)(F)F (stereo partly drawn) [Example 60, Azetidin-3-yl ((1S)-1-(4-((1,1-dimethyl-2,3-dihydro-1H-inden-2-ylamino)phenyl)-2,2,2-trifluoroethyl)(methyl)carbamate Hydrochloride]	–	210 nM	53 nM	1100 nM
CC(=O)NCCC(=O)N(C)[C@@H](c1ccc(NC2Cc3ccccc3C2(C)C)cc1)C(F)(F)F (single isomer, unassigned) [Example 24]	870 nM	160 nM	89 nM	–
CN(C(=O)C1CCS(=O)(=O)CC1)[C@@H](c1ccc(NC2Cc3ccc(Cl)cc3C2)cc1)C(F)(F)F (single isomer, unassigned) [Example 56]	93 nM	150 nM	14 nM	–
CN([C@@H](c1ccc(NC2Cc3ccccc3C2(C)C)cc1)C(F)(F)F)S(=O)(=O)C1CC1 (single isomer, unassigned) [Example 79]	–	610 nM	730 nM	4310 nM
CN(C(=O)C1CNC1)C(c1ccc(NC2Cc3ccccc3C2(C)C)cn1)C(F)(F)F (single isomer, unassigned) [Example 84, N-(1-(5-((1,1-Dimethyl-2,3-dihydro-1H-inden-2-yl)amino)pyridin-2-yl)-2,2,2-trifluoroethyl)-N-methylazetidine-3-carboxamide]	640 nM	320 nM	180 nM	–
CN1CC(C(=O)N(C)[C@@H](c2ccc(NC3Cc4ccccc4C3(C)C)cc2)C(F)(F)F)C1 (single isomer, unassigned) [Example 76]	500 nM	220 nM	36 nM	–
CN(C(=O)c1cnco1)[C@@H](c1ccc(NC2Cc3ccccc3C2(C)C)cc1)C(F)(F)F (single isomer, unassigned) [Example 5]	2250 nM	140 nM	250 nM	–
COCCC(=O)N(C)[C@@H](c1ccc(NC2Cc3ccccc3C2(C)C)cc1)C(F)(F)F (single isomer, unassigned) [Example 33]	2480 nM	360 nM	260 nM	–
CN(C(=O)N1CCOCC1)[C@@H](c1ccc(N[C@H]2Cc3ccccc3C2(C)C)cc1)C(F)(F)F (single isomer, unassigned) [Example 12]	–	180 nM	290 nM	490 nM
CN(C(=O)C1CCS(=O)(=O)CC1)[C@@H](c1ccc(NC2Cc3ccc(Cl)cc3C2(C)C)cc1)C(F)(F)F (single isomer, unassigned) [Example 151]	97 nM	120 nM	4 nM	–
COCC(=O)N(C)[C@@H](c1ccc(NC2Cc3ccccc3C2(C)C)cc1)C(F)(F)F (single isomer, unassigned) [Example 28]	2610 nM	290 nM	200 nM	–
CNS(=O)(=O)CCCC(=O)N(C)[C@@H](c1ccc(NC2Cc3ccccc3C2(C)C)cc1)C(F)(F)F (single isomer, unassigned) [Example 65]	2240 nM	190 nM	45 nM	–
CC(=O)NCC(=O)N(C)[C@@H](c1ccc(NC2Cc3ccccc3C2(C)C)cc1)C(F)(F)F (single isomer, unassigned) [Example 39]	3590 nM	240 nM	170 nM	–
CN(C(=O)c1cocn1)[C@@H](c1ccc(NC2Cc3ccccc3C2(C)C)cc1)C(F)(F)F (single isomer, unassigned) [Example 27]	400 nM	190 nM	180 nM	–
CN(C(=O)C1CCNCC1)[C@@H](c1ccc(NC2Cc3ccccc3C2)cc1)C(F)(F)F (single isomer, unassigned) [Example 70]	–	430 nM	810 nM	3500 nM
